Reference: PubChem BioAssay AID1963841 (Molecular Pharmacology Branch, DTP, NCI, 2024)
pIC50: −log10 of the molar value.

Tested on: 439559-082-T-J2-PDC spheroid viability
Test: Anticancer human tumor 439559-082-T-J2-PDC patient-derived colon adenocarcinoma cell line growth inhibition [POLQ]
Conditions: spheroids with HUVEC and MSC; for pIC50: curve of first compound; for viability, T/C: stronger effect = lower value
Outline: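 Complex spheroid viability model combining PDC tumour cells with endothelial (HUVEC) and MSC stromal cells. Novobiocin, ART-558 or RP6685 were tested singly and in combination with standard and investigational anticancer drugs. Each was titrated in half-log steps from near clinical Cmax, or from 10 microM where Cmax was unknown.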
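Further: spheroids exposed to compounds for seven days before readout.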
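Wherever viability, T/C is given: 100% = DMSO vehicle control viability.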

SMILES: CC(=O)O[C@H]1C(=O)[C@@]2(C)[C@H]([C@H](OC(=O)c3ccccc3)[C@]3(O)C[C@H](OC(=O)[C@H](O)[C@@H](NC(=O)c4ccccc4)c4ccccc4)C(C)=C1C3(C)C)[C@]1(OC(C)=O)CO[C@@H]1C[C@@H]2O + Nc1ccc(C#CCN(C(=O)Cc2ncc(C(F)(F)F)cc2C(F)(F)F)c2ccc(F)cc2)nn1
- pIC50 (second compound 0.0316 µM): 6.14
- pIC50 (second compound 0.1 µM): 5.90
- pIC50 (second compound 0.316 µM): 6.09
- pIC50 (second compound 1 µM): 6.05
- pIC50 (second compound 3.16 µM): 6.29
- pIC50 (second compound 10 µM): 6.44
- viability, T/C (second compound 0.0316 µM, first compound 0.00949 µM): 51.6%
- viability, T/C (second compound 0.0316 µM, first compound 0.03 µM): 54.9%
- viability, T/C (second compound 0.0316 µM, first compound 0.0949 µM): 75.6%
- viability, T/C (second compound 0.0316 µM, first compound 0.3 µM): 77.2%
- viability, T/C (second compound 0.0316 µM, first compound 0.949 µM): 45.6%
- viability, T/C (second compound 0.0316 µM, first compound 3 µM): 22.1%
- viability, T/C (second compound 0.1 µM, first compound 0.00949 µM): 53%
- viability, T/C (second compound 0.1 µM, first compound 0.03 µM): 53.8%
- viability, T/C (second compound 0.1 µM, first compound 0.0949 µM): 72.7%
- viability, T/C (second compound 0.1 µM, first compound 0.3 µM): 77.3%
- viability, T/C (second compound 0.1 µM, first compound 0.949 µM): 53.2%
- viability, T/C (second compound 0.1 µM, first compound 3 µM): 25.8%
- viability, T/C (second compound 0.316 µM, first compound 0.00949 µM): 54%
- viability, T/C (second compound 0.316 µM, first compound 0.03 µM): 58.5%
- viability, T/C (second compound 0.316 µM, first compound 0.0949 µM): 79.9%
- viability, T/C (second compound 0.316 µM, first compound 0.3 µM): 78.7%
- viability, T/C (second compound 0.316 µM, first compound 0.949 µM): 47.1%
- viability, T/C (second compound 0.316 µM, first compound 3 µM): 18.9%
- viability, T/C (second compound 1 µM, first compound 0.00949 µM): 46.2%
- viability, T/C (second compound 1 µM, first compound 0.03 µM): 56.7%
- viability, T/C (second compound 1 µM, first compound 0.0949 µM): 82.3%
- viability, T/C (second compound 1 µM, first compound 0.3 µM): 79.8%
- viability, T/C (second compound 1 µM, first compound 0.949 µM): 49.2%
- viability, T/C (second compound 1 µM, first compound 3 µM): 19%
- viability, T/C (second compound 3.16 µM, first compound 0.00949 µM): 37.2%
- viability, T/C (second compound 3.16 µM, first compound 0.03 µM): 53.5%
- viability, T/C (second compound 3.16 µM, first compound 0.0949 µM): 81.9%
- viability, T/C (second compound 3.16 µM, first compound 0.3 µM): 69%
- viability, T/C (second compound 3.16 µM, first compound 0.949 µM): 37.9%
- viability, T/C (second compound 3.16 µM, first compound 3 µM): 19.5%
- viability, T/C (second compound 10 µM, first compound 0.00949 µM): 42.8%
- viability, T/C (second compound 10 µM, first compound 0.03 µM): 48%
- viability, T/C (second compound 10 µM, first compound 0.0949 µM): 68.8%
- viability, T/C (second compound 10 µM, first compound 0.3 µM): 51.7%
- viability, T/C (second compound 10 µM, first compound 0.949 µM): 38%
- viability, T/C (second compound 10 µM, first compound 3 µM): 21.9%

SMILES: COc1cc(C2c3cc4c(cc3C(OC3OC5COC(C)OC5C(O)C3O)C3COC(=O)C23)OCO4)cc(OC)c1O (centres undefined) + Nc1ccc(C#CCN(C(=O)Cc2ncc(C(F)(F)F)cc2C(F)(F)F)c2ccc(F)cc2)nn1
- pIC50 (second compound 0.0316 µM): < 5.00
- pIC50 (second compound 0.1 µM): < 5.00
- pIC50 (second compound 0.316 µM): < 5.00
- pIC50 (second compound 1 µM): < 5.00
- pIC50 (second compound 3.16 µM): < 5.00
- pIC50 (second compound 10 µM): < 5.00
- viability, T/C (second compound 0.0316 µM, first compound 0.0316 µM): 89.8%
- viability, T/C (second compound 0.0316 µM, first compound 0.1 µM): 110%
- viability, T/C (second compound 0.0316 µM, first compound 0.316 µM): 85.5%
- viability, T/C (second compound 0.0316 µM, first compound 1 µM): 79.4%
- viability, T/C (second compound 0.0316 µM, first compound 3.16 µM): 68%
- viability, T/C (second compound 0.0316 µM, first compound 10 µM): 71.3%
- viability, T/C (second compound 0.1 µM, first compound 0.0316 µM): 86.2%
- viability, T/C (second compound 0.1 µM, first compound 0.1 µM): 94.3%
- viability, T/C (second compound 0.1 µM, first compound 0.316 µM): 84.2%
- viability, T/C (second compound 0.1 µM, first compound 1 µM): 85.5%
- viability, T/C (second compound 0.1 µM, first compound 3.16 µM): 86.8%
- viability, T/C (second compound 0.1 µM, first compound 10 µM): 81.7%
- viability, T/C (second compound 0.316 µM, first compound 0.0316 µM): 99.5%
- viability, T/C (second compound 0.316 µM, first compound 0.1 µM): 106%
- viability, T/C (second compound 0.316 µM, first compound 0.316 µM): 93.2%
- viability, T/C (second compound 0.316 µM, first compound 1 µM): 84.1%
- viability, T/C (second compound 0.316 µM, first compound 3.16 µM): 80.6%
- viability, T/C (second compound 0.316 µM, first compound 10 µM): 88%
- viability, T/C (second compound 1 µM, first compound 0.0316 µM): 104%
- viability, T/C (second compound 1 µM, first compound 0.1 µM): 93.5%
- viability, T/C (second compound 1 µM, first compound 0.316 µM): 92.6%
- viability, T/C (second compound 1 µM, first compound 1 µM): 91.5%
- viability, T/C (second compound 1 µM, first compound 3.16 µM): 88.7%
- viability, T/C (second compound 1 µM, first compound 10 µM): 70.6%
- viability, T/C (second compound 3.16 µM, first compound 0.0316 µM): 101%
- viability, T/C (second compound 3.16 µM, first compound 0.1 µM): 109%
- viability, T/C (second compound 3.16 µM, first compound 0.316 µM): 78.9%
- viability, T/C (second compound 3.16 µM, first compound 1 µM): 84.8%
- viability, T/C (second compound 3.16 µM, first compound 3.16 µM): 76%
- viability, T/C (second compound 3.16 µM, first compound 10 µM): 75.9%
- viability, T/C (second compound 10 µM, first compound 0.0316 µM): 97.5%
- viability, T/C (second compound 10 µM, first compound 0.1 µM): 84.4%
- viability, T/C (second compound 10 µM, first compound 0.316 µM): 77.6%
- viability, T/C (second compound 10 µM, first compound 1 µM): 86.2%
- viability, T/C (second compound 10 µM, first compound 3.16 µM): 80%
- viability, T/C (second compound 10 µM, first compound 10 µM): 70%
